According to patent US11311512B2, “Lymph directing prodrugs” (priority 2014, dated 2022):
Several values for one entry are separate records, joined by “and”; a condition that tells them apart may be missing. Equal entries are not always repeated. Where two headings read alike, the source gives them in different places.

Tests used:
[1] = Procedure: Lipid formulations containing the compound of interest were then administered to the animals, the lymph collected and drug concentrations in the lymph subsequently quantified.
Lipid-based formulations of the compounds of the invention or control compounds were prepared as previously described (Trevaskis, N. L. et al., Pharmaceutical Research, 2005, 22(11), 1863-1870). Briefly, approximately 2 mg of the compound (1 mg in the case of Compound 35 and Compound 1), 40 mg oleic acid and 25 mg Tween 80 were mixed in a glass vial until equilibrated (gentle heat (below 50° C.) may be applied for a short period).
[…] This was to eliminate the potential for the relatively high and variable levels of endogenous testosterone in male rats interfering with the quantification of exogenously dosed testosterone. Rats (240-320 g) were maintained on a standard diet and fasted overnight with free access to water prior to experiments. Anaesthetised rats were placed on a heated pad at 37° C. and cannulas were inserted into the duodenum (for formulation administration and rehydration), mesenteric lymph duct (for lymph collection) and carotid artery (for blood collection) as previously described (Edwards et al. Advanced Drug Delivery Reviews 2001, 50(1), 45-60). Post-surgery, rats were re-hydrated for 0.5 h via intraduodenal infusion of normal saline at 2.8 mL/h. The lipid formulations were infused into the duodenum at 2.8 mL/h for 2 h, after which the infusion was changed to 2.8 mL/h normal saline for the remainder of the experiment. Lymph was continuously collected for 6 to 8 h into pre-weighed Eppendorf tubes containing 10 μL of 1,000 IU/mL heparin. The collection tubes were changed hourly and lymph flow was measured gravimetrically. Aliquots of hourly lymph samples were stored at −80° C. prior to assay.
Drug concentration in lymph is expressed as total drug and includes free drug and drug associated with different glycerides. This is assayed by hydrolysis of lymph (to liberate drug from any re-esterified glycerides) prior to assessment of free drug.
FIG. 1 illustrates the cumulative lymphatic transport of total testosterone related derivatives (% of administered dose) versus time in anaesthetised mesenteric lymph duct cannulated female SD rats following intraduodenal infusion of formulations from 0 to 2 h. Each Formulation contained 2 mg of the exemplified compound or the control, testosterone undecanoate (TU), dispersed in 40 mg oleic acid, 25 mg Tween 80 and 5.6 ml PBS.

[2] = Pharmacokinetic study in rats, testosterone plasma concentrations after oral gavage; settings: testosterone in plasma, oral gavage; for Tmax / AUC0-24 h / Cmax: conscious carotid artery cannulated SD female rats; for AUC0-24 h / Cmax: normalized to 2 mg/kg equivalent testosterone dose
Procedure: In order to assess the oral bioavailability of the compounds of the invention, pharmacokinetic studies were conducted in rats and dogs. […] The rats were then allowed to regain consciousness and fasted overnight prior to the commencement of experiments with free access to water. […] The oral formulation of Compound 2 contained 3 mg of the compound, 20 mg oleic acid and 12.5 mg Tween 80 dispersed in 1 mL PBS. Blood samples were collected from the carotid artery cannula from 5 min prior to administration up to 24 h post-dosing and centrifuged at 5000 rpm for 5 min to separate plasma. […] Plasma samples were stored at −80° C. prior to assay by HPLC-MS-MS. In this case samples were assayed for free drug (i.e. non-glyceride associated drug) and were not hydrolysed prior to assay (as was the case with the lymph samples).
FIG. 12 illustrates dose-normalized testosterone plasma concentrations following oral gavage of formulations to conscious, carotid artery cannulated female SD rats. Formulations contained 1 mg of TU, or 2 mg of compounds of the invention containing testosterone dispersed in 40 mg oleic acid, 25 mg Tween 80 and 2 ml PBS. Doses are normalized to a 2 mg/kg equivalent dose of testosterone. Data are shown as mean±SEM for all groups (n=4 or 3 for each group). The embedded figure is the plot of the dose-normalized plasma AUC0-24h (nmol×h/L) of testosterone in the form of a bar graph.

[3] = anaesthetised, mesenteric lymph-duct cannulated male SD rats, intraduodenal infusion, MET, ATV, ASP, SER or CEL derivatives
[4] = anaesthetised, mesenteric lymph-duct cannulated male SD rats, intraduodenal infusion 0-2 h, cumulative over 8 h
[5] = lymphatic transport of total MPA derivatives, male SD rats, intraduodenal infusion
[6] = male, Sprague-Dawley, rat, in vivo

Molecule: 1-(1,3-Bis(palmitoyloxy)propan-2-yl) 10-(1-(isopropylamino)-3-(4-(2-methoxyethyl)phen-oxy)propan-2-yl) decanedioate [Compound 3]
- Transport of total drug derivatives in lymph (% of dose) [1, 3]: 14.2 ± 1.5 % of dose
- Increase fold (compared with parent drug group) ([1]; lymphatic transport of total drug derivatives, male SD rats, intraduodenal infusion): 591.7 fold

Molecule: CCCCCCCCCCCCCCCC(=O)OCC(COC(=O)CCCCCCCCCCCCCCC)OC(=O)C(C)CCCOC(=O)CCC(C)=CCc1c(O)c2c(c(C)c1OC)COC2=O (mixture of isomers) [Compound 36]
- Transport of total MPA derivatives in lymph (% of dose) [1, 4]: 9.1 % of dose and 9.1 ± 1.4 % of dose
- Fold increase (compared with MPA dosed group) [1, 5]: 54.6 fold

Molecule: CCCCCCCCCCCCCCCC(=O)OCC(COC(=O)CCCCCCCCCCCCCCC)OC(=O)C(C)CCCCOC(=O)CCC(C)=CCc1c(O)c2c(c(C)c1OC)COC2=O (mixture of isomers) [Compound 37]
- Transport of total MPA derivatives in lymph (% of dose) [1, 4]: 12.6 % of dose and 12.6 ± 1.7 % of dose
- Fold increase (compared with MPA dosed group) [1, 5]: 75.0 fold

Molecule: CCCCCCCCCCCCCCCC(=O)OCC(COC(=O)CCCCCCCCCCCCCCC)OC(=O)CC(C)CCOC(=O)CCC(C)=CCc1c(O)c2c(c(C)c1OC)COC2=O (mixture of isomers) [Compound 38]
- Transport of total MPA derivatives in lymph (% of dose) [1, 4]: 12.1 % of dose and 12.1 ± 1.0 % of dose
- Fold increase (compared with MPA dosed group) [1, 5]: 72.3 fold

Molecule: CCCCCCCCCCCCCCCC(=O)OCC(COC(=O)CCCCCCCCCCCCCCC)OC(=O)CC(C)CCCCCCCCCCCCOC(=O)CCC(C)=CCc1c(O)c2c(c(C)c1OC)COC2=O (mixture of isomers) [Compound 39]
- Transport of total MPA derivatives in lymph (% of dose) [1, 4]: 28.4 % of dose and 28.4 ± 3.2 % of dose
- Fold increase (compared with MPA dosed group) [1, 5]: 167.0 fold

Molecule: CC(=O)Oc1ccccc1C(=O)O [ASP, aspirin, reference compound]
- Increase fold (compared with parent drug group) [1, 6]: 1.0 fold
- Transport of total drug derivatives in lymph (% of dose) [1, 6]: 1.3 ± 0.2 % of dose

Molecule: CCCCCCCCCCCCCCCC(=O)OCC(COC(=O)CCCCCCCCCCCCCCC)OC(=O)CCCCCCCCC(=O)Oc1cc(C)cc(C)c1C(C)(C)CC(=O)NS(=O)(=O)c1ccc(-n2nc(C(F)(F)F)cc2-c2ccc(C)cc2)cc1 [Compound 5]
- Transport of total drug derivatives in lymph (% of dose) [1, 3]: 15.7 ± 1.3 % of dose

Molecule: CCCCCCCCCCCCCCCC(=O)OCC(COC(=O)CCCCCCCCCCCCCCC)OC(=O)CCCC(=O)O[C@H]1CC[C@H]2[C@@H]3CCC4=CC(=O)CC[C@]4(C)[C@H]3CC[C@]12C [Compound 10]
- Transport of total TST derivatives in lymph (% of dose) ([1]; anaesthetised, mesenteric lymph-duct cannulated female SD rats, intraduodenal infusion 0-2 h, cumulative over 8 h): 14.5 % of dose
- Fold increase (compared with control group dosed with TU) ([1]; lymphatic transport of total TST derivatives, female SD rats, intraduodenal infusion): 7.7 fold
- AUC0-24 h fold increase compared with TU group ([2]; SD female rats, dose-normalized): 2.8 fold and 2.9 fold
- Tmax [2]: 1.0 ± 0.0 h and 1.1 ± 0.1 h
- AUC0-24 h [2]: 0.0191 ± 0.0024 µM·h and 0.0196 ± 0.0008 µM·h
- Cmax [2]: 19 nM and 13.7 nM

Molecule: CCCCCCCCCCCCCCCC(=O)OCC(COC(=O)CCCCCCCCCCCCCCC)OC(=O)CCCCC(=O)Oc1cc(C)cc(C)c1C(C)(C)CC(=O)O[C@H]1CC[C@H]2[C@@H]3CCC4=CC(=O)CC[C@]4(C)[C@H]3CC[C@]12C [Compound 22, 1,3-Bis(palmitoyloxy)propan-2-yl (2-(4-(((8R,9S,10R,13S,14S,17S)-10,13-dimethyl-3-oxo-2,3,6,7,8,9,10,11,12,13-14,15,16,17-tetradecahydro-1H-cyclopenta[a]phenanthren-17-yl)oxy)-2-methyl-4-oxobutan-2-yl)-3,5-dimethylphenyl) adipate]
- Tmax [2]: 1.0 ± 0.0 h
- AUC0-24 h [2]: 0.2691 ± 0.0588 µM·h
- Cmax [2]: 171 ± 27 nM

Molecule: CCCCCCCCCCCCCCCC(=O)OCC(COC(=O)CCCCCCCCCCCCCCC)OC(=O)CCCCCCCCC(=O)Oc1cc(C)cc(C)c1C(C)(C)CC(=O)O[C@H]1CC[C@H]2[C@@H]3CCC4=CC(=O)CC[C@]4(C)[C@H]3CC[C@]12C [Compound 26]
- Tmax [2]: 1.1 ± 0.1 h
- AUC0-24 h [2]: 0.6173 ± 0.1778 µM·h
- Cmax [2]: 487 ± 134 nM

Molecule: CCCCCCCCCCCCCCCC(=O)OCC(COC(=O)CCCCCCCCCCCCCCC)OC(=O)CCCCCCCOC(=O)CC/C(C)=C/Cc1c(O)c2c(c(C)c1OC)COC2=O [Compound 33]
- Transport of total MPA derivatives in lymph (% of dose) [1, 4]: 10.5 ± 0.7 % of dose
- Fold increase (compared with MPA dosed group) [1, 5]: 62.8 fold

Molecule: CCCCCCCCCCCCCCCC(=O)OCC(COC(=O)CCCCCCCCCCCCCCC)OC(=O)CCCCCCCCCCCCCCOC(=O)CC/C(C)=C/Cc1c(O)c2c(c(C)c1OC)COC2=O [Compound 34]
- Transport of total MPA derivatives in lymph (% of dose) [1, 4]: 22.1 % of dose and 22.1 ± 3.5 % of dose
- Transport of total MPA derivatives in lymph (% of dose) ([1]; anaesthetised, mesenteric lymph-duct cannulated male SD rats, intraduodenal infusion 0-2 h, cumulative over 8 h, listed as compound 34): 22.1 % of dose
- Fold increase (compared with MPA dosed group) [1, 5]: 132.0 fold

Molecule: CCCCCCCCCCCCCCCC(=O)OCC(COC(=O)CCCCCCCCCCCCCCC)OC(=O)CCCCCCCCCCCCCCCCCCCCOC(=O)CC/C(C)=C/Cc1c(O)c2c(c(C)c1OC)COC2=O [Compound 35]
- Transport of total MPA derivatives in lymph (% of dose) [1, 4]: 9.7 ± 1.0 % of dose
- Fold increase (compared with MPA dosed group) [1, 5]: 58.1 fold

Molecule: CCCCCCCCCCCCCCCC(=O)OCC(COC(=O)CCCCCCCCCCCCCCC)OC(=O)CCCCSC(=O)CC/C(C)=C/Cc1c(O)c2c(c(C)c1OC)COC2=O [Compound 40]
- Transport of total MPA derivatives in lymph (% of dose) [1, 4]: 10.2 ± 3.0 % of dose
- Fold increase (compared with MPA dosed group) [1, 5]: 61.1 fold

Molecule: COCCc1ccc(OCC(O)CNC(C)C)cc1 (stereo not shown) [MET, metoprolol, reference compound]
- Increase fold (compared with parent drug group) [1, 6]: 1.0 fold
- Transport of total drug derivatives in lymph (% of dose) [1, 6]: 0.02 ± 0.01 % of dose

Molecule: COc1c(C)c2c(c(O)c1C/C=C(\C)CCC(=O)O)C(=O)OC2 [MPA, mycophenolic acid, reference compound]
- Fold increase (compared with MPA dosed group) [1, 6]: 1.0 fold
- Transport of total MPA derivatives in lymph (% of dose) [1, 6]: 0.17 ± 0.05 % of dose

Molecule: CN[C@H]1CC[C@@H](c2ccc(Cl)c(Cl)c2)c2ccccc21 [SER, sertraline, reference compound]
- Increase fold (compared with parent drug group) [1, 6]: 1.0 fold
- Transport of total drug derivatives in lymph (% of dose) [1, 6]: 0.05 % of dose
